5 compounds from paper PMC10175918 (Communications Biology, 2023) can be followed below.

Like-named read-outs stand apart in the source and are kept apart here.

Test in all cases: TGFα-shedding assay-based GPCR screening with chimeric Gα subunit proteins
Assay type in all cases: cell-based

Assay [1] has as its target T1, 348 GPCRs (Homo sapiens, UniProt O00398).
T1 construct: expressed in transfected cells; host or cells: HEK293A

Assay [2] deals with T2, 348 GPCRs (Homo sapiens, UniProt O75473).
T2 construct: expressed in transfected cells; host or cells: HEK293A
T2 sequence (O75473 22-907): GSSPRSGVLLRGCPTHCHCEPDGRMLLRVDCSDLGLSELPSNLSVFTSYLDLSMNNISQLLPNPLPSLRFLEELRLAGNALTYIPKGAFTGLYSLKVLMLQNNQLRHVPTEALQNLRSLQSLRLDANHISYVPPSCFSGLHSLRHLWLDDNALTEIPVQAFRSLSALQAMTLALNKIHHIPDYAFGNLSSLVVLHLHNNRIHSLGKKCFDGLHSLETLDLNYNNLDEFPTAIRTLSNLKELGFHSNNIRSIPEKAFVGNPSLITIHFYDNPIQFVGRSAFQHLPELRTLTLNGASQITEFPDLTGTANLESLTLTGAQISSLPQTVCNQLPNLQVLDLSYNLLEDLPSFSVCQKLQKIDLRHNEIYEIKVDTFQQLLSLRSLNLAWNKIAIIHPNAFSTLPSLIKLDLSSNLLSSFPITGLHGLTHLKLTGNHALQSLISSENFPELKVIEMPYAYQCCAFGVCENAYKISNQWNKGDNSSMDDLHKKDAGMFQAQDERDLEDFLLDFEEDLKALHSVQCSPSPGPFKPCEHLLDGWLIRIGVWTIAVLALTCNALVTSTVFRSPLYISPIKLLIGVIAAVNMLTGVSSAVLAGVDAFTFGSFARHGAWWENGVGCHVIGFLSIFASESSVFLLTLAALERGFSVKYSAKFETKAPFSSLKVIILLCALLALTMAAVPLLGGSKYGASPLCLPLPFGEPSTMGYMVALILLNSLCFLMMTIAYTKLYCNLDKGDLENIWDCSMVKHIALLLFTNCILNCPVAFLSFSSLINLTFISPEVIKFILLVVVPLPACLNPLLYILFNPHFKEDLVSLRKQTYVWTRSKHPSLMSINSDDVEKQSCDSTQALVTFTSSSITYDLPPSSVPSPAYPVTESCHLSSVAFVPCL
The following applies: 10µM, Favipiravir 100μM.

Assay [3] addresses T3, 348 GPCRs (Homo sapiens, UniProt P41587).
T3 construct: expressed in transfected cells; host or cells: HEK293A
T3 sequence (P41587 24-438): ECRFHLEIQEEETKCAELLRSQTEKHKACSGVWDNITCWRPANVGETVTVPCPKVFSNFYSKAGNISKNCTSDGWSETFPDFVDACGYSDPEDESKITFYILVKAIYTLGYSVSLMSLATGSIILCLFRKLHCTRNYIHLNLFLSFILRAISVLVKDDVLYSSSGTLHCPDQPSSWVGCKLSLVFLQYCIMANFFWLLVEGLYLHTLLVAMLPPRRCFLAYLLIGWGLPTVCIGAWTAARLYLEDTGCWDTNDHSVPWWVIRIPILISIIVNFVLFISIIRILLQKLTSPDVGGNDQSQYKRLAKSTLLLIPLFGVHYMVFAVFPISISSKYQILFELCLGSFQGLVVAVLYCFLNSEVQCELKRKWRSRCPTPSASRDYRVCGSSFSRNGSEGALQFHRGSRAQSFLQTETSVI

The target of assay [4] is T4, 348 GPCRs (Homo sapiens, UniProt P51677).
T4 construct: expressed in transfected cells; host or cells: HEK293A
T4 sequence (P51677 1-355): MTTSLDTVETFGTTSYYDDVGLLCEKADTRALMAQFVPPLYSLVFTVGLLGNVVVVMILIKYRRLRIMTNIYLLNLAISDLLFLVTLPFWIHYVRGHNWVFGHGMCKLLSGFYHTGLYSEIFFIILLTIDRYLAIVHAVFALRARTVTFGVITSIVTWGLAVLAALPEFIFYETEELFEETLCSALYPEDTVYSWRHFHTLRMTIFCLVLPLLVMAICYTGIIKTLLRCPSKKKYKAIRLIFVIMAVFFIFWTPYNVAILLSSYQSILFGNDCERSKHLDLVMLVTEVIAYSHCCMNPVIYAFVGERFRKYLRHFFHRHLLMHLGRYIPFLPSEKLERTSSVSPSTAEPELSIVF
The following applies: 10µM, Favipiravir 100μM.

In assay [5] the target is 348 GPCRs (Homo sapiens, UniProt P51681). Particulars: 10µM, Favipiravir 100μM.
Chain of 348 GPCRs (Homo sapiens, UniProt P51681) (P51681 whole entry): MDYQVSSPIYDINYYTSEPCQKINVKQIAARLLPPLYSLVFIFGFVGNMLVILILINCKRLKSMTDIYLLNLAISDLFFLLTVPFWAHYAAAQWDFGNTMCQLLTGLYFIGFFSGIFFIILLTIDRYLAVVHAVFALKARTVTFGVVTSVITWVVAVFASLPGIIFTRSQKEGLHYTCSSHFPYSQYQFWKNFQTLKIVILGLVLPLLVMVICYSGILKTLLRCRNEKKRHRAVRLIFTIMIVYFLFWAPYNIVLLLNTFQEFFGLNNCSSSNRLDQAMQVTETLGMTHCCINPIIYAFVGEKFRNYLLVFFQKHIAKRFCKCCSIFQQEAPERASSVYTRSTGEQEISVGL
Assay [6] addresses T5, 348 GPCRs (Homo sapiens, UniProt Q86Y34).
T5 construct: expressed in transfected cells; host or cells: HEK293A
Particulars: 10µM, Favipiravir 100μM.

In assay [7] the target is T6, 348 GPCRs (Homo sapiens, UniProt Q92847).
T6 construct: expressed in transfected cells; host or cells: HEK293A
T6 sequence (Q92847 whole entry): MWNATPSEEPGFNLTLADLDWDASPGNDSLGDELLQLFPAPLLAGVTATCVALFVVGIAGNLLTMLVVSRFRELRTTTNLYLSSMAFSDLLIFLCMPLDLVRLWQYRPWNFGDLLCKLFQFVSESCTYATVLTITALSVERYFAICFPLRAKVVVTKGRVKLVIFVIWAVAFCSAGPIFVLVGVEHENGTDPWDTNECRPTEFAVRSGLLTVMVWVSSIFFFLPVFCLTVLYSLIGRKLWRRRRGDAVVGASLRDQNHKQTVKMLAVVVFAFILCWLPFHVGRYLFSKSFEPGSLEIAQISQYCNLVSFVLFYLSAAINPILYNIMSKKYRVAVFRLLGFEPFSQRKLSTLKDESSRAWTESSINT
The following applies: 10µM, Favipiravir 100μM.

Assay [8] concerns the target T7, 348 GPCRs (Homo sapiens, UniProt Q9ULV1).
T7 construct: expressed in transfected cells; host or cells: HEK293A
T7 sequence (Q9ULV1 37-537): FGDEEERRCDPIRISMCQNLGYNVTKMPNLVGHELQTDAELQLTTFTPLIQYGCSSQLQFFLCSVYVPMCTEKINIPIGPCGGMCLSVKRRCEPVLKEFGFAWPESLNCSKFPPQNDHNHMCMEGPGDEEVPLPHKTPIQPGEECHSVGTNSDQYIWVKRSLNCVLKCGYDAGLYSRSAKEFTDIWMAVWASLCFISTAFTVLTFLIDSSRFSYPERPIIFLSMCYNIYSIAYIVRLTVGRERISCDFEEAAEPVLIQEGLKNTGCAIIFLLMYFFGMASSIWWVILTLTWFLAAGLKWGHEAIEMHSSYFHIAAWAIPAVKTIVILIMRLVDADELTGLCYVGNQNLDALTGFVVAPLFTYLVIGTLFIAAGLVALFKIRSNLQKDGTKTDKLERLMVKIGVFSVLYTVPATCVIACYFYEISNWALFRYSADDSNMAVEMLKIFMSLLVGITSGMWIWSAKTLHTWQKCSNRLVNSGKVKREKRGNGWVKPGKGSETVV
Particulars: 10µM, Favipiravir 100μM.

Where [9] appears, read: GPCR P2RY10 (purinergic receptor P2Y, G-protein coupled, 10), read-out: % GPCR activation compared to TPA.
The mark [10] stands for this setting: LGR5 (leucine-rich repeat containing G protein-coupled receptor 5), read-out: % GPCR activation compared to TPA.
[11] abbreviates: GPCR VIPR2 (vasoactive intestinal peptide receptor 2), read-out: % GPCR activation compared to TPA.
[12] abbreviates: CCR3 (C-C motif chemokine receptor 3), read-out: % GPCR activation compared to TPA.
Setting [13] is: CCR5, CCR5 (C-C motif chemokine receptor 5), read-out: % GPCR activation compared to TPA.
[14] abbreviates: GPR97 (Adhesion G Protein-Coupled Receptor G3 (ADGRG3)), read-out: % GPCR activation compared to TPA.
[15] abbreviates: GHSR (growth hormone secretagogue receptor), read-out: % GPCR activation compared to TPA.
Setting [16] is: FZD4 (frizzled family receptor 4), read-out: % GPCR activation compared to TPA.
Where [17] appears, read: read-out: % GPCR activation compared to TPA, GPCR P2RY10 (purinergic receptor P2Y, G-protein coupled, 10).
[18] abbreviates: read-out: % GPCR activation compared to TPA, LGR5 (leucine-rich repeat containing G protein-coupled receptor 5).
The mark [19] stands for this setting: read-out: % GPCR activation compared to TPA, GPCR VIPR2 (vasoactive intestinal peptide receptor 2).
Setting [20] is: read-out: % GPCR activation compared to TPA, CCR3 (C-C motif chemokine receptor 3).
[21] abbreviates: CCR5, read-out: % GPCR activation compared to TPA, CCR5 (C-C motif chemokine receptor 5).
Setting [22] is: read-out: % GPCR activation compared to TPA, GPR97 (Adhesion G Protein-Coupled Receptor G3 (ADGRG3)).
The mark [23] stands for this setting: read-out: % GPCR activation compared to TPA, GHSR (growth hormone secretagogue receptor).
[24] abbreviates: read-out: % GPCR activation compared to TPA, FZD4 (frizzled family receptor 4).

T1 sequence (O00398 whole entry): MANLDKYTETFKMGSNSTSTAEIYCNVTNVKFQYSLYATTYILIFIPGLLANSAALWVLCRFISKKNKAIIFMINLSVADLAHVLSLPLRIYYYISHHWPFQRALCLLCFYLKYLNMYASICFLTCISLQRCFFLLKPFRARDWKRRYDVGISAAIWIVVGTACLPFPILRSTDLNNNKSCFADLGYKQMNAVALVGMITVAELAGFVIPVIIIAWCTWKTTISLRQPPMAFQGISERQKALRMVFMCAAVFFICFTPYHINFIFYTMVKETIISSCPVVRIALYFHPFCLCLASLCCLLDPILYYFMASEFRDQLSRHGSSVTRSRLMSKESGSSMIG
T5 sequence (Q86Y34 21-549): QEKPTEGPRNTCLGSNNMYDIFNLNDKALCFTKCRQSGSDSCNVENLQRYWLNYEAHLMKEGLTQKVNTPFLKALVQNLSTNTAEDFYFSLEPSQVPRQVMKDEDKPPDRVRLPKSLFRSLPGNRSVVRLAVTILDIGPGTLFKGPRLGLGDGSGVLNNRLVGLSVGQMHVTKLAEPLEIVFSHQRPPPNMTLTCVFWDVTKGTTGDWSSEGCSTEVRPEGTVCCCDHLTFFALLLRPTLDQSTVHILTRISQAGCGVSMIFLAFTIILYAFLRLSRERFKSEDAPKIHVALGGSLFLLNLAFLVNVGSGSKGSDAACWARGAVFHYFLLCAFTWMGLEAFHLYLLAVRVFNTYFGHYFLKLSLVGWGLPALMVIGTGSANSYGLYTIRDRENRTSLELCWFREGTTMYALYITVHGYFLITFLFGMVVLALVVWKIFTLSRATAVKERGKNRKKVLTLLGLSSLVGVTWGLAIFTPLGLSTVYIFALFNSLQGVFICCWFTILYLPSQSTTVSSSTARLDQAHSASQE

Take `CC(C)C(=O)OC[C@H]1O[C@@H](n2ccc(NO)nc2=O)[C@H](O)[C@@H]1O` [molnupiravir]: the activation at 10 µM in assay [1] (setting [9]) is -1.61%; in assay [3] (setting [11]) it was -0.156%; in assay [5] (setting [13]), -2.34%; in assay [7] (setting [15]), 0.166%. Also, the activation at 100 µM is -3.75% in assay [2] (setting [10]), -0.741% in assay [4] (setting [12]), -1.08% in assay [6] (setting [14]) and 1.08% in assay [8] (setting [16]).
`CC(C)OC(=O)[C@H](C)N[P@](=O)(OC[C@H]1O[C@@H](n2ccc(=O)[nH]c2=O)[C@](C)(F)[C@@H]1O)Oc1ccccc1` [sofosbuvir]: the activation at 10 µM in assay [1] (setting [17]) is 0.334%; in assay [3] (setting [19]) it was 1.3%; in assay [5] (setting [21]), -0.363%; in assay [7] (setting [23]), -0.354%. The activation at 100 µM in assay [2] (setting [18]) is -3.95%; in assay [4] (setting [20]), -1.65%; in assay [6] (setting [22]) it was -1.21%; in assay [8] (setting [24]), -0.222%.
With `N#C[C@@]1(c2ccc3c(N)ncnn23)O[C@H](CO)[C@@H](O)[C@H]1O` [GS441524], the activation at 10 µM in assay [1] (setting [9]) is -1.36%; in assay [3] (setting [11]), -0.864%; in assay [5] (setting [13]), -0.436%; in assay [7] (setting [15]), -4.16%. The activation at 100 µM in assay [2] (setting [10]) is -2.87%; in assay [4] (setting [12]), 3.06%; in assay [6] (setting [14]) it was -0.758%; in assay [8] (setting [16]) it was 4.3%.
For the compound `NC(=O)c1nc(F)cnc1O` [favipiravir, 6-fluoro-3-hydroxy-2-pyrazinecarboxamide], the activation at 100 µM in assay [1] (GPCR P2RY10 (purinergic receptor P2Y, G-protein coupled, 10), 100μM, read-out: % GPCR activation compared to TPA) is -0.745%; in assay [2] (setting [10]) it was -2.31%; in assay [3] (GPCR VIPR2 (vasoactive intestinal peptide receptor 2), 100μM, read-out: % GPCR activation compared to TPA), -0.699%; in assay [4] (setting [12]), 2.7%; in assay [6] (setting [14]), -1.79%; in assay [8] (setting [16]), 0.755%. Besides, the figures for the activation at 10 µM in assay [5] (setting [13]) and in assay [7] (setting [15]) were 1.19% and -3.33%, respectively.
Consider `CCC(CC)COC(=O)[C@H](C)N[P@](=O)(OC[C@H]1O[C@@](C#N)(c2ccc3c(N)ncnn23)[C@H](O)[C@@H]1O)Oc1ccccc1` [remdesivir], for which the activation at 10 µM in assay [1] (setting [17]) is -1.53%; in assay [3] (setting [19]) it was 0.502%; in assay [5] (setting [21]), 2.38%; in assay [7] (setting [23]), 12.2%. Moreover, the activation at 100 µM in assay [2] (setting [18]) is 12.4%; in assay [4] (setting [20]) it was 7.61%; in assay [6] (setting [22]), -1.74%; in assay [8] (setting [24]), 3.99%.
